Experimental data reported in patent publication US6825165B1, “Betacellulin modification” (Takeda Chemical Industries, Ltd., priority 1998, dated 2004).
No end group written: not given here.

Legend:
[1] = system: 3T3 A31-714 Clone 4 cells; test: Cell growth promoting activity using 3T3 cells (3H-thymidine uptake), Example 25; assay type: cell-based, mouse; conditions: 3H-thymidine uptake into 3T3 A31-714 Clone 4; 100% is the maximum uptake of the 80-residue betacellulin
Description: The cell growth promoting activity was assayed by means of the ^3H-thymidine uptake into stationary 3T3 A31-714 Clone 4 (International Journal of Cancer, 12:463 (1973)) as described in Molecular Cell Biology, 8:588 (1988).
100 μL 3T3 A31-714 Clone 4 suspended to 1000 cells/mL using Dulbecco's modified Eagle MEM medium containing 5% bovine serum were seeded to 96 well plates and cultured for a day at 37° C. in carbon dioxide gas incubators (5% carbon dioxide gas, 95% air). 75 μL of supernatant was taken, and 100 μL of serum-free Dulbecco's modified Eagle MEM medium was added to adjust the serum concentration to 1%. Two more days of culture was followed by the addition of varying concentrations of the hBTC50, Mutein A, or Mutein B prepared in the above examples. 16 hours after these had been added, ^3H-thymidine (Amersham Pharmacia Biotech) was added in an amount of 0.25 μCi/well, after 4 hours the cells were washed 3 times with PBS, 100 μL of 5% SDS was added, and the cells were lysed. The cell lysate was transferred to scintillation vials, 1 mL of Scintillator A (Wako Pure Chemicals) was added, and the uptake of ^3H-thymidine into the cellwas assayed with a scintillation counter.

[2] = system: AR42J cells; test: β cell differentiation promoting activity using AR42J cells (anti-insulin immunofluorescence), Example 26; assay type: cell-based; conditions: 5 days incubation; for Differentiation into insulin-producing β cells (stained cells under fluorescent microscope): anti-insulin antibody/FITC staining; for Incidence of insulin-producing cells: comparison between the proteins
Description: Cells of the AR42J cell line derived from pancreatic cancer induced by chemical carcinogens (Christophe, Am. J. Physiol., 266: G963 (1994)) were suspended to a concentration of 10^5 cells/mL in Dulbecco's modified Eagle MEM medium containing 10% fetal calf serum and one of hBTC50, Mutein A, Mutein B, or the 80-residue betacellulin (hBTC80) prepared in accordance with the method in Japanese Unexamined Patent Application (Kokai) H10-191989. 500 μL of these suspensions was inoculated on chamber slides and incubated for 5 days at 37° C. in carbon dioxide gas incubators (5% carbon dioxide gas, 95% air). After 5 days, the cells were washed once with PBS, fixed in 10% formaldehyde, and treated for 5 min with 0.1% Triton X-100. Block Ace (Snow Brand, Japan) was then added for 40 minutes of blocking at room temperature. Anti-insulin antibodies (by Advanced Immunochemicals) diluted with 10% Block Ace were added, and reacted for 40 minutes at room temperature. 0.1% Triton X-100 was added, the reaction solution was allowed to stand for 5 minutes at room temperature, and the cells were then washed three times with PBS. FITC (fluorescein isothiocyanate) labeled anti-mouse IgG antibodies (Cappel) diluted with 10% Block Ace were added, and a reaction was brought about for 40 minutes. 0.1% Triton X-100 was added, the reaction solution was allowed to stand for 5 minutes, the cells were then washed three times with PBS, and they were then observed under a fluorescent microscope.

[3] = system: PLAP expression AR42J cells; test: β cell differentiation promoting activity using PLAP expression AR42J cells (AR71-104 clone), Example 27; assay type: cell-based; conditions: 5 days, A405, 100% is the maximum absorbance when hBTC50 was added
Description: The differentiation promoting activity into β cells was also determined using AR42J cells transformed with the vector having alkaline phosphatase which had been ligated as a reporter downstream of the insulin promoter. Specifically, cells which have differentiated into β cells by addition of betacellulin produce alkaline phosphatase. As a result, by assaying the alkaline phosphatase activity, the differentiation promoting activity into β cells can be quantitatively assayed.
Cells of each clone were seeded on 24-well plates and cultured for 4 days with and without the addition of 20 ng/mL 80-residue BTC, the supernatant was collected and heat treated for 30 minutes at 65° C., and the alkaline phosphatase activity in the media was then assayed. Clones showing increased alkaline phosphatase activity with the addition of 80-residue betacellulin were selected. The AR71-104 clone was used below.
PLAP expression AR42J cells constructed in 3-2) were suspended to a concentration of 3×10^4 cells/mL in Dulbecco's modified Eagle MEM medium containing 10% fetal calf serum and on of varying concentrations of the hBTC50 or Mutein A or B prepared above. […] The samples were held for 10 minutes at 37° C., and 10 μL of 20 mg/mL p-nitrophenylphosphoric acid (Sigma) was added, a reaction was brought about for 16 hours at 37° C., and the absorbance at 405 nm (A405) was determined.

Substance | cell growth promoting activity ED50 [1] [nM] | Differentiation into insulin-producing β cells (stained cells under fluorescent microscope) [2] | Incidence of insulin-producing cells [2] | activity inducing differentiation to β cells ED50 [3] [nM]
Mutein A: hBTC50 with 3 amino acids (Asn, Pro, Ser) of the heregulin sequence inserted between Cys3-Cys4; SEQ ID NO: 44 (RKGHFSRCPKQYKHYCIKGRCRFVVAEQNPSTPSCVCDEGYIGARCERVDLFY; ends and bridges not checked; cysteine pairing not given here) | 0.6 | cells which had differentiated into insulin-producing β cells, were found | no differences in the incidence of insulin-producing cells | 0.5
Mutein B: hBTC50 in which seven N terminal residues were substituted with five corresponding EGF residues; SEQ ID NO: 45 (NSDSECPKQYKHYCIKGRCRFVVAEQTPSCVCDEGYIGARCERVDLFY; ends and bridges not checked; cysteine pairing not given here) | >10.0 | cells which had differentiated into insulin-producing β cells, were found | no differences in the incidence of insulin-producing cells | 0.7
